Experimental data: US20200267989A1, “PARASITE TREATMENT COMPOUND” (University of Maine System Board of Trustees, priority 2017, published 2020)
Where “and” joins values, the source holds several entries; their conditions need not be identical. Equal entries are not always repeated.

Legend:
[1] = previously known pesticide treatment; cited from earlier work
sea lice [2] = test: KCl bath treatment of sea-lice-infected Atlantic salmon: sea lice detachment; format: in vivo
Procedure: (§1) A 0.48% (4.8 g/L-4.8 ppt) pharmaceutical grade KCl compound was tested on 30 Atlantic salmon that were infected with sea lice. The fish and the compound were added to a tank filled with seawater. After 30 minutes 15 fish were removed and placed in a recovery bath of seawater, and at 60 minutes the remaining 15 fish were removed.
(§2) A 0.43% % (4.3 g/L-4.3 ppt) agricultural grade KCl compound was tested on Atlantic salmon that were infected with sea lice. After 10 minutes the fish began showing agitation that increased until the 30 minute mark. Fish began losing equilibrium and began to roll over and stop respiring by 20 minutes.
(§3) A water holding tank was filled with fresh well water at 10° C.+−2° C. A 0.5% % (5.0 g/L-5.0 ppt) agricultural grade KCl solution was added to the water. A number of farm-raised Atlantic salmon that were infected with sea lice were added to the tank.
(§4) A water holding tank was filled with fresh well water at 10° C.+−2° C. A 0.2% % (2.0 g/L-2.0 ppt) agricultural grade KCl solution was added to the water. A number of farm-raised Atlantic salmon that were infected with sea lice were added to the tank.

Atlantic salmon = test: KCl bath treatment of Atlantic salmon: adverse effects on the fish; format: in vivo
Procedure: as §1, §2, §3, §4

sea lice [3] = test: Pilot laboratory trial: KCl pre-treatment plus mechanical devices for removal of sea lice from Atlantic salmon; format: in vivo
Procedure: A pilot laboratory trial was run using various forms of mechanical devices for removal of sea lice from Atlantic salmon (ATS). The effectiveness of the mechanical devices at removing/detaching lice was measured with and without KCl pretreatment, and the results compared.
The experiment consisted of testing 3 mechanical devices on lice infested Atlantic salmon (ATS) in seawater and then on lice infested Atlantic salmon that had been pre-treated in seawater with KCL at 4 part per thousand (PPT) or 2 PPT for 5 or 15 minutes. The mechanical treatment referred to as Treatment A in Table 1 was a water spray apparatus including multiple jets in a roughly circular arrangement, and treatments B and C in Table 1 were alternative mechanical treatments. Each treatment group was run separately with two fish were staggered by 15 minutes to facilitate counting lice, except for Treatment C as both fish were placed together. The treatment groups were as follows: • 1) Treatment A with seawater (2 fish) • 2) Treatment A with sea water plus KCL 4 PPT, 15 minutes (2 fish) • 3) Treatment B with seawater (2 fish) • 4) Treatment B with sea water plus KCL 4 PPT, 15 minutes (2 fish) • 5) Treatment A with seawater plus 2PPT, 15 minutes (1 fish) • 6) Treatment A with sea water plus KCL 4 PPT, 5 minutes (1 fish) • 7) Treatment C with seawater (2 fish) • 8) Treatment C sea water plus KCL 2 PPT (2 fish)
Each treatment group was performed essentially as follows:
Pre-Treatment before Treatment A, B, or C • 1) Take 1 fish and transfer it to Tank 1 (70 liter tank); • 2) Take 1 fish and transfer it to Tank 2, staggered (70 liter tank); • 3) Both tanks will be filled with seawater for Round 1 of a treatment group and seawater and KC1 4PPT X for Round 2 for a treatment; • 4) Fish swim around freely in treatment Tank 1 for 30 minutes; • 5) Fish swim around freely in treatment Tank 2 for 30 minutes;
Evaluation of Pretreatment: • 1) Remove Fish from Tank 1; • 2) Place 1 Fish in Sedation Tank; • 3) Count detached lice in Tank 1; • 4) Remove 1 Fish from Sedation Tank; • 5) Count numbers of Lice on each fish (making sure to differentiate between the two tanks); • 6) Repeat for staggered Tank 2.
Perform Mechanical Treatment: • 1) Pass fish through mechanical treatments (A, B or C) • 2) Count lice on fish

[4] = Example 1: 0.48% (4.8 ppt) pharmaceutical grade KCl, seawater tank, 30 and 60 minutes
[5] = Example 3: 0.5% (5.0 ppt) agricultural grade KCl, fresh well water at 10° C.
[6] = Mechanical Treatment A, KCl 2 PPT in seawater, treatment time 15 min
[7] = Mechanical Treatment A, KCl 4 PPT in seawater, treatment time 5 min
[8] = Mechanical Treatment A, KCl 4 PPT in seawater, treatment time 15 min
[9] = Mechanical Treatment B, KCl 4 PPT in seawater, treatment time 15 min

emamectin benzoate
time the pesticide can remain in the fish [1]: more than two months

[Cl-].[K+] [KCl, potassium chloride]
sea lice detachment (sea lice [2]; [4]): noticeable sea lice detachment | sea lice detachment (sea lice [2]; Example 2: 0.43% (4.3 ppt) agricultural grade KCl, by agitation and thrashing of the dying fish): detached more lice | sea lice removal (sea lice [2]; [5]): marked sea lice removal | sea lice detachment (sea lice [2]; Example 4: 0.2% (2.0 ppt) agricultural grade KCl, fresh well water at 10° C., after 30 minutes): marked sea lice detachment | effectiveness on sea lice in freshwater compared with seawater (sea lice [2]; freshwater vs seawater): more effective | adverse effects on the salmon (Atlantic salmon; [4]): no noticeable adverse effects | time by which fish began losing equilibrium, rolled over and stopped respiring (Atlantic salmon; Example 2: 0.43% (4.3 ppt) agricultural grade KCl): ≤ 20 min | time after which fish began showing agitation (Atlantic salmon; Example 2: 0.43% (4.3 ppt) agricultural grade KCl, agitation increased until the 30 minute mark): 10 min | time within which fish showed extreme agitation, began to lose equilibrium and respiration stopped (Atlantic salmon; [5]): ≤ 10 min | agitation or adverse effect on the fish (Atlantic salmon; Example 4: 0.2% (2.0 ppt) agricultural grade KCl, fresh well water at 10° C., after 60 minutes): no agitation or adverse effect | effect of KCl on effectiveness of mechanical treatments A and B at removing/detaching lice (sea lice [3]; KCl pretreatment in seawater before mechanical treatment): increases the effectiveness | # removed - mechanical + KCl (sea lice [3]; [6]): 90 | # removed - mechanical treatment only (sea lice [3]; [6]): 39 | % removed - mechanical + KCl (sea lice [3]; [6]): 78.3% | % removed - mechanical treatment only (sea lice [3]; [6]): 60.9% | Sealice counts: Detached in pre-treatment tank (sea lice [3]; [6]): 51 | Sealice counts: On fish - finish (sea lice [3]; [6]): 25 | Sealice counts: On fish - start of mechanical treatment (sea lice [3]; [6]): 64 | # removed - mechanical + KCl (sea lice [3]; [7]): 117 | # removed - mechanical treatment only (sea lice [3]; [7]): 65 | % removed - mechanical + KCl (sea lice [3]; [7]): 80.7% | % removed - mechanical treatment only (sea lice [3]; [7]): 69.9% | Sealice counts: Detached in pre-treatment tank (sea lice [3]; [7]): 52 | Sealice counts: On fish - finish (sea lice [3]; [7]): 28 | Sealice counts: On fish - start of mechanical treatment (sea lice [3]; [7]): 93 | # removed - mechanical + KCl (sea lice [3]; [8]): 99 and 115 | # removed - mechanical treatment only (sea lice [3]; [8]): 19 and 16 | % removed - mechanical + KCl (sea lice [3]; [8]): 91.7% and 99.1% | % removed - mechanical treatment only (sea lice [3]; [8]): 67.9% and 94.1% | Sealice counts: Detached in pre-treatment tank (sea lice [3]; [8]): 80 and 99 | Sealice counts: On fish - start of mechanical treatment (sea lice [3]; [8]): 28 and 17 | # removed - mechanical + KCl (sea lice [3]; [9]): 88 and 85 | # removed - mechanical treatment only (sea lice [3]; [9]): 9 and 11 | % removed - mechanical + KCl (sea lice [3]; [9]): 91.7% and 93.4% | % removed - mechanical treatment only (sea lice [3]; [9]): 52.9% and 64.7% | Sealice counts: Detached in pre-treatment tank (sea lice [3]; [9]): 79 and 74 | Sealice counts: On fish - finish (sea lice [3]; [9]): 8 and 6 | Sealice counts: On fish - start of mechanical treatment (sea lice [3]; [9]): 17 | Sealice counts: On fish - finish (sea lice [3]; Mechanical Treatment C, KCl 2 PPT in seawater, treatment time 5 min, lice not counted prior to treatment): 35 and 31 | removing/detaching lice by KCl pretreatment on its own (sea lice [3]; pretreatment at 4ppt and 2ppt in seawater): effective in removing/detaching lice on its own | effectiveness of KCl at 4ppt compared with 2ppt (sea lice [3]; seawater pretreatment): more effective | effectiveness of KCl at 4ppt for 15 minutes compared with 5 minutes (sea lice [3]; seawater pretreatment, 4ppt): more effective
